Data set [1] has as its system HEK 293. Nature of the data set: MTT cell proliferation assay. The class given is cell-based. To be noted: Homo sapiens, HEK293; HEK 293, MTT, 24 hrs. The protocol:
(§1) The MTT cell proliferation was assessed against the cell lines HeLa (ATCC; CCL-2), A549 (ATCC; CCL-185), MCF-7 (ATCC; HTB-22), DU145 (ATCC; HTB-81), CHO (ATCC; CCL-61), HEK293 (ATCC; CRL-1573), NIH3T3 (ATCC; CRL-1658) were procured from the American Type Culture Collection (ATCC). These cell lines were grown and maintained in Dulbecco's modified Eagle's medium with non-essential amino acids, 10 % fetal bovine serum (FBS), 1 mM sodium pyruvate, in humidified atmosphere containing 5 % CO2 at 37 °C (Esumi et al., 2004[7]).
(§2) The cell lines were seeded in 96-well plates in 200 µL aliquots. The test compounds in different concentrations were added and incubated at 37 °C for 24 hrs. Doxorubicin was used as positive control (Prata-Sena et al., 2016[28]).
Background: Tetrazolium dyes change colour on reduction, which living cells bring about.

The test system of data set [2] is HePG2 cells. Also on record: method as in Lyu et al., 2016 [19]. Particulars: ref Lyu et al., 2016 [19]; cited from earlier work.
Details of data set [3]: method as in Habib and Karim, 2009 [10]. To be noted: DEHP isolated from Calotropis gigantean; ref Habib and Karim, 2009 [10]; cited from earlier work.
The subject of data set [4] is HaCaT cells. Details: method as in Peropadre et al., 2015 [26]. Particulars: ref Peropadre et al., 2015 [26]; cited from earlier work.
The test system of data set [5] is CHO. Put plainly: MTT cell proliferation assay. The class given is cell-based. Particulars: Cricetulus griseus, 24 hrs. The protocol: as §1, §2
Data set [6] deals with MCF-7. Put plainly: MTT cell proliferation assay. The format is cell-based. To be noted: Homo sapiens, MCF7; MCF-7, MTT, 24 hrs. The method, then: as §1, §2
In data set [7] the test system is DU-145. Nature of the data set: MTT cell proliferation assay. The format is cell-based. To be noted: Homo sapiens; DU-145, MTT, 24 hrs. The method, then:
as §1, §2

The subject of data set [8] is B. subtilis. Also on record: method as in Habib and Karim, 2009 [10]. Particulars: DEHP isolated from Calotropis gigantean, ref Habib and Karim, 2009 [10]; cited from earlier work.
For data set [9], the system named is 4th instar larvae of Aedes aegypti. Put plainly: Larvicidal bioassay/Dose-response bioassay. The format is in vivo. To be noted: 4th instar Aedes aegypti larvae, 24 h exposure. The method, then: The early 4th instar larvae of Aedes aegypti were selected for evaluation of mosquito larvicidal activity. The larvae were collected and fed with a mixture powdered yeast and dog biscuits. These were maintained in insectaries till the emergence of adults. The colony was photo periodically maintained at 14 L: 10 D (hours) and with relative humidity 80 ± 5 % at 28 °C (Kumar et al., 2010[16]). Adult mosquitoes were fed with blood for egg maturation. The eggs were allowed to hatch in an enamel bowl lined with Whatman filter paper filled with distilled water. The pupae formed were separated and transferred to insectary for the emergence of adults (da Silva et al., 2016[6]).
Based on the preliminary screening results, different concentrations ranging from 25 to 200 ppm were prepared for DEHP and 25 to 1 ppm for DBP were used. The compounds were subjected to dose response bioassay against 4th instar larvae of Aedes aegypti larvae. Dead larvae were counted after 24 h of exposure, and the percentage mortality was reported from the average of triplicates (Govindarajan et al., 2016[9]).

Data set [10] concerns Staphylococcus aureus (MTCC 96). Nature of the data set: Anti-bacterial activity, MIC in 96-well broth dilution. The format is cell-based. To be noted: MTCC96, S. aureus, 24 hrs at 37 °C. The method, then:
(§3) The antibacterial evaluation was carried out against Gram positive bacteria; Staphylococcus epidermidis (MTCC 435), Bacillus subtilis (MTCC 441), Staphylococcus aureus (MTCC 96), and Gram negative bacteria; Pseudomonas aeruginosa (MTCC 741), E. coli (MTCC 443) and Klebsiella pneumoniae (MTCC 618). Brevibacterium mcbrellneri MTCC (3913) was chosen for isolation of biologically active compounds.
(§4) The minimum inhibitory concentrations (MIC) were recorded against Staphylococcus aureus, Bacillus subtilis, Staphylococcus epidermidis, Pseudomonas aeruginosa, Escherichia coli and Klebsiella pneumoniae. In brief 96-well plates were distributed with Nutrient broth and the compounds in different concentrations (150 μg/mL to 0.5μg/mL). 50 μL microbial suspensions were seeded into each well (0.5 MacFarland standards) to make the final volume of 200 μl with culture broth. The plates were incubated for 24 hrs at 37 °C. The lowest concentration, at which the visible inhibition was recorded, was considered as MIC. Streptomycin and Benzylpenicillin were used as positive controls.
For orientation: Broth dilution looks for growth in wells or tubes with falling amounts of substance.

The test system of data set [11] is Staphylococcus epidermidis (MTCC 435). Described as above. The class given is cell-based. Particulars: MTCC435, S. epidermidis, 24 hrs at 37 °C. The method, then: as §3, §4
Data set [12] concerns Pseudomonas aeruginosa (MTCC 741). The data set is described as above. The format is cell-based. Particulars: MTCC741, P. aeroginosa, 24 hrs at 37 °C. The protocol: as §3, §4
The test system of data set [13] is Bacillus subtilis (MTCC 441). Described as above. The class given is cell-based. Particulars: MTCC441, B. subtilis, 24 hrs at 37 °C. The protocol: as §3, §4
Data set [14] concerns Klebsiella pneumoniae (MTCC 618). Described as above. The class given is cell-based. Particulars: MTCC618, K. pneumoniae, 24 hrs at 37 °C. The protocol:
as §3, §4

Data set [15] has as its system E. coli (MTCC 443). The description is as above. Particulars: Escherichia coli, MTCC443, 24 hrs at 37 °C. The format is cell-based. The method, then: as §3, §4
Data set [16] has as its system Sarcina lutea. Details: method as in Habib and Karim, 2009 [10]. To be noted: DEHP isolated from Calotropis gigantean, ref Habib and Karim, 2009 [10]; cited from earlier work.
The test system of data set [17] is S. typhi. Details: method as in Roy et al., 2006 [30]. To be noted: DBP isolated from Streptomyces albidoflavus, ref Roy et al., 2006 [30]; cited from earlier work.
Data set [18] concerns B. subtilis. Also on record: method as in Roy et al., 2006 [30]. Particulars: DBP isolated from Streptomyces albidoflavus, ref Roy et al., 2006 [30]; cited from earlier work.
Data set [19] deals with S. cerevisiae. Details: method as in Roy et al., 2006 [30]. Particulars: DBP isolated from Streptomyces albidoflavus, ref Roy et al., 2006 [30]; cited from earlier work.
Data set [20] relates to A. niger. Details: method as in Roy et al., 2006 [30]. Particulars: DBP isolated from Streptomyces albidoflavus, ref Roy et al., 2006 [30]; cited from earlier work.
The test system of data set [21] is Curvularia pallescens. Details: method as in Roy et al., 2006 [30]. Particulars: DBP isolated from Streptomyces albidoflavus, ref Roy et al., 2006 [30]; cited from earlier work.
The subject of data set [22] is A549 cells. Also on record: method as in Hsu et al., 2011 [14]. To be noted: ref Hsu et al., 2011 [14]; cited from earlier work.
Data set [23] relates to E. coli. Also on record: method as in Roy et al., 2006 [30]. To be noted: DBP isolated from Streptomyces albidoflavus, ref Roy et al., 2006 [30]; cited from earlier work.

Converted amounts (≈) assume the structure as drawn. Read-outs that look alike come from different tables or passages of the source.

The source of these data is publication PMC5427467, “Isolation and characterization of phthalates from Brevibacterium mcbrellneri that cause cytotoxicity and cell cycle arrest” (EXCLI Journal, 2017).

As a reminder, the IC50 is the midpoint of a concentration-inhibition curve. High values mean weaker potency, low ones greater potency. Broadly, the MIC is the lowest concentration that inhibits growth of the organism. A word on the LC50: it is the concentration lethal to half of the exposed cells or organisms. For orientation: mortality means the share of the test organisms that died. Low values mean more survivors, high ones fewer survivors.

`COc1cccc2c1C(=O)c1c(O)c3c(c(O)c1C2=O)C[C@@](O)(C(=O)CO)C[C@@H]3O[C@H]1C[C@H](N)[C@H](O)[C@H](C)O1` [doxorubicin, Doxorubicin, reference compound] displayed an IC50 in data set [1] of 21.8 ± 8.8 µg/mL (≈ 40.1 µM).

Consider `CCCCC(CC)COC(=O)c1ccccc1C(=O)OCC(CC)CCCC` (centres unmarked) [DEHP, di-(2-ethylhexyl) phthalate], for which, in data set [2], the “apoptosis / cell cycle effect” value is recorded as “apoptosis without cell cycle arrest”. For the same compound, in data set [3], the antifungal property entry was “negligible”. Besides, in data set [4], the cell cycle effect entry is “cell cycle arrest at G1 phase”. Moreover, the IC50 in data set [5] turned out to be 193 ± 5.4 µg/mL (≈ 494 µM); in data set [6], 46.55 ± 0.1 µg/mL (≈ 119 µM); in data set [7], 33.5 ± 7.7 µg/mL (≈ 85.7 µM). Besides, the MIC was 32 µg/mL (≈ 81.9 µM) in data set [8]; 18.8 µg/mL (≈ 48 µM) in data set [10]; 9.37 µg/mL (≈ 24 µM) in data set [11]; 75 µg/mL (≈ 192 µM) in data set [12]; 37.5 µg/mL (≈ 96 µM) in data set [13]; 75 µg/mL (≈ 192 µM) in data set [14]. Besides, the MIC was 37.5 µg/mL (≈ 96 µM) in data set [15] and 32 µg/mL (≈ 81.9 µM) in data set [16]. The compound also had an LC50 in data set [9] of 47.65 ppm.

Consider `CCCCOC(=O)c1ccccc1C(=O)OCCCC` [DBP, dibutyl phthalate], for which the MIC is 76 µg/mL (≈ 273 µM) in data set [17]; 84 µg/mL (≈ 302 µM) in data set [18]; 92 µg/mL (≈ 331 µM) in [19]; 98 µg/mL (≈ 352 µM) in data set [20]; 117 µg/mL (≈ 420 µM) in [21]; 37.5 µg/mL (≈ 135 µM) in data set [10]. In addition, the MIC in [11] was 18.8 µg/mL (≈ 67.4 µM); in data set [12], 37.5 µg/mL (≈ 135 µM); in data set [13], 18.8 µg/mL (≈ 67.4 µM); in data set [14] it was 75 µg/mL (≈ 269 µM); in data set [15], 37.5 µg/mL (≈ 135 µM); in data set [23], 53 µg/mL (≈ 190 µM). For the same compound, the IC50 amounted to 36 ± 8.6 µg/mL (≈ 129 µM) in [5], 19.8 ± 10 µg/mL (≈ 71 µM) in data set [1], 32.4 ± 3.6 µg/mL (≈ 117 µM) in data set [6] and 31.2 ± 8.7 µg/mL (≈ 112 µM) in data set [7]. The compound further had an LC50 in data set [9] of 1.62 ppm. For the same compound, the mortality at 25 ppm in data set [9] (at 25 ppm) was 100%. Moreover, the cytotoxic activity result in [22] was “Cytotoxic activity”.
